By IC50 is commonly meant the concentration that gives 50% inhibition. The low end stands for greater potency, the high end for weaker potency. In general, Ki refers to the dissociation constant of the complex between target and ligand, obtained from inhibition or displacement. Higher therefore signals lower affinity.

From publication PMC11995831, “Synthesis of Novel Isoindolinones: Carbonic Anhydrase Inhibition Profiles, Antioxidant Potential, Antimicrobial Effect, Cytotoxicity and Anticancer Activity” (Journal of Biochemical and Molecular Toxicology, 2025) come the findings set out here.

Values after ≈ are worked out from the molar mass of the structure shown. “Also recorded” adds a separate entry of the source.

Data set [1] relates to Bacillus subtilis ATCC 6633. As to the kind of experiment: Disc diffusion, Bacillus subtilis. The settings on record: for zone of inhibition at 1000 µg/mL: ATCC6633, 24 h, read-out: inhibitory zone diameter, B1 Bacillus subtilis. (In agar diffusion tests the substance spreads into inoculated agar from a disc or well.)
The target in another data set is hCA II (Homo sapiens, UniProt P00918). As to the kind of experiment: hCA II inhibition assay (esterase activity). The data set is classed as biochemical. To be noted: for IC50 / Ki: human erythrocyte hCA II, esterase activity.
The next data set has as its system L929 cells. As to the kind of experiment: Cytotoxicity, WST-1 assay in L929 cells. The data set is classed as cell-based. The settings on record: WST-1, 24 h exposure, 6.25-500 μg/ml.
The next data set deals with A549 cell line. As to the kind of experiment: Anticancer activity, WST-1 assay in A549 cells. The settings on record: WST-1, 24 h exposure, 6.25-500 μg/ml. For orientation: Formazan colour is commonly taken as a measure of viable cells.
For data set [2], the system named is Staphylococcus aureus ATCC 25923. As to the kind of experiment: Disc diffusion, Staphylococcus aureus. To be noted: for zone of inhibition at 1000 µg/mL: ATCC25923, 24 h, read-out: inhibitory zone diameter, B2 Staphylococcus aureus.
A further data set concerns the target hCA I (Homo sapiens, UniProt P00915). As to the kind of experiment: hCA I inhibition assay (esterase activity). The settings on record: human erythrocyte hCA I. Type of data set: biochemical.
Data set [3] relates to Escherichia coli ATCC 43895. The data set can be described thus: Disc diffusion, Escherichia coli. The data set is classed as cell-based. To be noted: read-out: inhibitory zone diameter, B3 Escherichia coli; for zone of inhibition at 1000 µg/mL: ATCC43895, compounds at 1000 μg/mL, disc diameter 5 mm, 24 h. On the procedure: All tests were conducted in triplicate.
Data set [4] is described as follows: ABTS radical cation scavenging assay. The settings on record: for IC50 ABTS method: ABTS radical scavenging; for antioxidant activity (in words): ABTS scavenging and Fe reduction, compared to BHT, BHA, α-tocopherol; for ABTS radical scavenging (λ734): absorbance at 734 nm, 30 μg/mL concentration. On the procedure:
Antioxidant capacity was determined using the ABTS radical cation scavenging method ABTS and potassium persulfate (K2S2O8) were mixed in equal proportions and incubated at room temperature to generate the radical cation. The resulting solution was diluted with ethanol, and the absorbance of the control was adjusted to 0.928 ± 0.025 at 734 nm. Different concentrations of the compounds were prepared, added to test tubes, and adjusted with 0.2 mL of ethanol. To each tube, 0.8 mL of the ABTS radical solution was added. After incubation for 30 min, the absorbance of the remaining ABTS^•+ was measured at 734 nm.

Data set [5] can be described thus: Fe3+ reducing power assay (FRAP method). To be noted: absorbance at 700 nm, 30 μg/mL concentration. On the procedure: The ability of the carbamate compounds to reduce was evaluated using the FRAP assay. Various concentrations of the compounds were dissolved in deionized water to a final volume of 0.2 mL in test tubes. To each tube, 500 µL of potassium […] [K3Fe(CN)6] and 500 µL of phosphate buffer (0.2 M, pH 6.6) were added. The mixture was vortexed and incubated for 20 min at 50°C. Then, 500 µL of 10% trichloroacetic acid was added, and 500 µL of the upper layer of the solution was mixed with 100 µL of 0.1% FeCl3 and 500 µL of distilled water. The absorbance of the reducing effect was recorded using a spectrophotometer at 700 nm.

Data set [6] relates to Klebsiella pneumoniae ATCC 13883. As to the kind of experiment: Disc diffusion, Klebsiella pneumoniae. To be noted: for zone of inhibition at 1000 µg/mL: ATCC13883, 24 h, read-out: inhibitory zone diameter, B4 Klebsiella pneumonia.
The test system of data set [7] is Candida albicans ATCC 10231. As to the kind of experiment: Disc diffusion, Candida albicans.
The test system of data set [8] is Yarrowia lipolytica ATCC 20460. As to the kind of experiment: Disc diffusion, Yarrowia lipolytica.
Setting [9] is: positive control 10 µg disc^−1, disc diameter 5 mm.

hCA I, sequence (P00915 whole entry, the tested form may be a part): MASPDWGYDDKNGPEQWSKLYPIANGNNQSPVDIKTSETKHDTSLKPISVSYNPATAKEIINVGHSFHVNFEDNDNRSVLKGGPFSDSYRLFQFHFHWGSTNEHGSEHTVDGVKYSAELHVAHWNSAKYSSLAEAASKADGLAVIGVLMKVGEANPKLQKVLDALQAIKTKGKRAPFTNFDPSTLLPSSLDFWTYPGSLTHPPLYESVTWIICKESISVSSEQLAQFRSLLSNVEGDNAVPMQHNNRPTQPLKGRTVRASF

On to `CCOS(=O)(=O)N1C(=O)c2ccccc2C1(O)c1ccccc1` (centres unmarked) [2a, Ethyl1‐hydroxy‐3‐oxo‐1‐phenylisoindoline‐2‐sulfonate], for which the zone of inhibition at 1000 µg/mL in data set [1] was determined as 7 mm; in [2], 7 mm; in data set [3] it was 9 mm; in [6] it was 8 mm. Moreover, the half-maximal inhibitory concentration (IC50) on hCA II came out at 28.84 ± 0.151 nM; on hCA I, 24.3 ± 1.98 nM. Moreover, the “cell proliferation of L929 cells compared with control group (in words)” value with L929 cells is reported as “increased cell proliferation”. Besides, in the data set with A549 cell line, the “anticancer activity against A549 cells (in words)” value is reported as “dose‐dependent anticancer activity; also recorded: demonstrated inhibitory effects at high doses”. The molecule further had an inhibition constant Ki at hCA I of 22 ± 9.21 nM. In addition, in [4], the “IC50 ABTS method” value is 231.00 µg/mL. In data set [4], the “antioxidant activity (in words)” value is reported as “lowest activity”. The “ABTS radical scavenging (λ734)” value in data set [4] is reported as 0.835 ± 0.024. The “Fe^3+-Fe^2+ reducing (λ700)” value in data set [5] is listed as 1.168 ± 0.058.

`CCCOS(=O)(=O)N1C(=O)c2ccccc2C1(O)c1ccccc1` (centres unmarked) [2b, Propyl1‐hydroxy‐3‐oxo‐1‐phenylisoindoline‐2‐sulfonate]: the zone of inhibition at 1000 µg/mL in data set [1] worked out at 11 mm; in [2] it was 8 mm; in data set [3], 10 mm; in [6] it was 10 mm. Also, the “increase of activity on hCA II with n-propanol (2b) instead of n-butanol (2d)” value at hCA II (2b compared with 2d, Ki hCA II) stood at 1.56 fold. In addition, the IC50 against hCA II turned out to be 231 ± 1 nM; against hCA I, 42 ± 1.35 nM. Also, the values for the Ki on hCA II and on hCA I were 160 ± 46.6 nM and 49.5 ± 12.1 nM, respectively. In addition, in data set [4], the “IC50 ABTS method” value is listed as 173.25 µg/mL. In addition, the “ABTS radical scavenging (λ734)” value in data set [4] was determined as 0.802 ± 0.072. Besides, the “Fe^3+-Fe^2+ reducing (λ700)” value in data set [5] worked out at 1.260 ± 0.079.

Consider `CC(C)OS(=O)(=O)N1C(=O)c2ccccc2C1(O)c1ccccc1` (centres unmarked) [2c, Isopropyl1‐hydroxy‐3‐oxo‐1‐phenylisoindoline‐2‐sulfonate], for which the zone of inhibition at 1000 µg/mL is 16 mm in [1], 19 mm in [2], 18 mm in data set [3] and 17 mm in [6]. The 50% inhibitory concentration (IC50) worked out at 13.02 ± 0.041 nM against hCA II and 12.6 ± 0.37 nM against hCA I. Also, the Ki is 9.32 ± 2.35 nM at hCA II and 11.5 ± 4.18 nM at hCA I. Further, the “cell proliferation of L929 cells compared with control group (in words)” value in the data set on L929 cells is given as “increased cell proliferation”. In addition, the “IC50 ABTS method” value in data set [4] worked out at 40.76 µg/mL. In addition, in data set [4], the “ABTS radical scavenging (λ734)” value is 0.549 ± 0.049. Besides, the “Fe^3+-Fe^2+ reducing (λ700)” value in data set [5] is listed as 1.323 ± 0.133.

Regarding `CCCCOS(=O)(=O)N1C(=O)c2ccccc2C1(O)c1ccccc1` (centres unmarked) [2d, Butyl1‐hydroxy‐3‐oxo‐1‐phenylisoindoline‐2‐sulfonate], the zone of inhibition at 1000 µg/mL in [1] worked out at 12 mm; in data set [2], 14 mm; in data set [3] it was 13 mm; in data set [6], 12 mm. In addition, the figures for the IC50 on hCA II and against hCA I were 86.37 ± 0.338 nM and 75.7 ± 1.21 nM, respectively. Further, the results for the Ki at hCA II and on hCA I were 251 ± 37.1 nM and 87.1 ± 35.2 nM, respectively. Besides, the “cell proliferation of L929 cells compared with control group (in words)” value in the data set on L929 cells is “increased cell proliferation”. Also, in data set [4], the “IC50 ABTS method” value amounted to 99.00 µg/mL. In data set [4], the “ABTS radical scavenging (λ734)” value is recorded as 0.719 ± 0.032. Also, the “Fe^3+-Fe^2+ reducing (λ700)” value in [5] came out at 1.278 ± 0.059.

Consider `CC(C)COS(=O)(=O)N1C(=O)c2ccccc2C1(O)c1ccccc1` (centres unmarked) [2e, Isobutyl1‐hydroxy‐3‐oxo‐1‐phenylisoindoline‐2‐sulfonate], for which the zone of inhibition at 1000 µg/mL came to 10 mm in data set [1], 13 mm in data set [2], 14 mm in [3] and 11 mm in data set [6]. The IC50 against hCA II was 23.85 ± 0.152 nM; on hCA I, 11.8 ± 0.132 nM. The Ki was determined as 37.5 ± 14.7 nM at hCA II and 33.3 ± 15.1 nM on hCA I. In addition, in data set [4], the “IC50 ABTS method” value is 53.30 µg/mL. The “ABTS radical scavenging (λ734)” value in [4] amounted to 0.624 ± 0.040. The “Fe^3+-Fe^2+ reducing (λ700)” value in data set [5] is reported as 1.316 ± 0.023.

Turning to `O=C1c2ccccc2C(O)(c2ccccc2)N1S(=O)(=O)OC1CCCCC1` (centres unmarked) [2f, Cyclohexyl1‐hydroxy‐3‐oxo‐1‐phenylisoindoline‐2‐sulfonate], the zone of inhibition at 1000 µg/mL came out at 20 mm in data set [1]; 24 mm in data set [2]; 19 mm in data set [7] (Candida albicans, ATCC10231, 24 h, read-out: inhibitory zone diameter, F1 Candida albicans); 25 mm in [3]; 16 mm in data set [8] (Yarrowia lipolytica, ATCC20460, 24 h, read-out: inhibitory zone diameter, F2 Yarrowia lipolytica); 22 mm in data set [6]. The IC50 on hCA II amounted to 27.8 ± 0.17 nM; against hCA I it was 11.2 ± 0.291 nM. Further, the Ki at hCA II came to 14.9 ± 3.25 nM; at hCA I, 16.1 ± 4.14 nM. In addition, the “IC50 ABTS method” value in [4] stood at 27.72 µg/mL. Further, in data set [4], the “antioxidant activity (in words)” value was “highest antioxidant activity”. Moreover, the “ABTS radical scavenging (λ734)” value in [4] is 0.426 ± 0.132. Further, the “Fe^3+-Fe^2+ reducing (λ700)” value in data set [5] was 1.485 ± 0.156.

On to `CC1(C)S[C@@H]2[C@H](NC(=O)[C@H](N)c3ccccc3)C(=O)N2[C@H]1C(=O)O` [Ampicillin, reference compound], for which the zone of inhibition at 10 µg/disc in data set [1] (ATCC6633, read-out: inhibitory zone diameter, B1 Bacillus subtilis) was 18 mm; in [2] (ATCC25923, read-out: inhibitory zone diameter, B2 Staphylococcus aureus), 21 mm; in data set [3] (ATCC43895, positive control 10 µg disc^−1, disc diameter 5 mm), 20 mm; in data set [6] (ATCC13883, read-out: inhibitory zone diameter, B4 Klebsiella pneumonia), 19 mm.

For `COc1ccc(O)c(C(C)(C)C)c1` [BHA, reference compound], in data set [4], the “IC50 ABTS method” value is on record as 12.83 µg/mL (≈ 71.2 µM) and the “ABTS radical scavenging (λ734)” value was found to be 0.201 ± 0.040. For the same molecule, in data set [5], the “Fe^3+-Fe^2+ reducing (λ700)” value was 2.625 ± 0.241.

Regarding `Cc1cc(C(C)(C)C)c(O)c(C(C)(C)C)c1` [BHT, reference compound], in data set [4], the “IC50 ABTS method” value was 16.11 µg/mL (≈ 73.1 µM) and the “ABTS radical scavenging (λ734)” value is 0.293 ± 0.094. The “Fe^3+-Fe^2+ reducing (λ700)” value in data set [5] was determined as 2.510 ± 0.111.

With `C[C@@H]1[C@H](O)[C@@H](C)/C=C/C=C/CC/C=C/C=C/C=C/C=C/C(O[C@H]2O[C@H](C)[C@@H](O)[C@H](N)[C@@H]2O)CC2O[C@](O)(CC(O)C(O)CCC(O)CC(O)CC(O)CC(=O)O[C@H]1C)CC(O)C2C(=O)O` (some centres unmarked) [Nystatin, reference compound], the “inhibitory zone diameter, F1 Candida albicans” value in data set [7] (setting [9]) came out at 18 mm. For the same molecule, the “inhibitory zone diameter, F2 Yarrowia lipolytica” value in data set [8] (setting [9]) came out at 15 mm.

As to `Cc1c(C)c2c(c(C)c1O)CC[C@@](C)(CCC[C@H](C)CCC[C@H](C)CCCC(C)C)O2` [α‐Tokoferol, α‐tocopherol, reference compound], in [4], the “IC50 ABTS method” value amounted to 18.23 µg/mL (≈ 42.3 µM) and the “ABTS radical scavenging (λ734)” value is recorded as 0.319 ± 0.101. Also, in data set [5], the “Fe^3+-Fe^2+ reducing (λ700)” value is 1.465 ± 0.284.
